Measurements taken from ChEMBL document CHEMBL1201862, “PubChem BioAssay data set” (2004).
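1) Cells in 96-well plates. 2) Compound, 48 h, 5 concentrations. 3) Linear interpolation between surrounding doses. 4) Unreached endpoint = highest concentration. GI50 = concentration required for 50% inhibition of growth.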 Activity calls are given as the source filed them. No stated cut-off is given here; in the data, active = GI50 up to about 1.1 µM and inactive = higher.

How the values were obtained:
Experiment in all cases: inhibition of tumour cell growth, NCI panel, 48 h
[1] = test system: UO-31
[2] = test system: SNB-19
[3] = test system: TK-10
[4] = test system: PC-3
[5] = test system: MDA-MB-435
[6] = test system: SW-620
[7] = test system: BT-549
[8] = test system: A549
[9] = test system: HCC 2998
[10] = test system: DU-145
[11] = test system: NCI-H23
[12] = test system: HL-60
[13] = test system: EKVX
[14] = test system: ACHN
[15] = test system: MDA-MB-231
[16] = test system: SR

Measured: GI50

CCCCCCOc1ccc(NC2=C(Cl)C(=O)c3cccnc3C2=O)cc1
inactive: [1] 1.14 µM | [2] 2.7 µM | [3] 3.3 µM | [4] 2.41 µM | [5] 1.75 µM | [6] 1.54 µM | [7] 3.22 µM | [8] 1.95 µM | [9] 1.56 µM | [10] 1.55 µM | [11] 1.74 µM | [12] 1.15 µM | [13] 1.67 µM | [14] 2.1 µM

COc1ccc2c(c1)c1c(n2CCN(C)C)-c2cccc(OC)c2CC1
inactive: [1] 14.9 µM | [2] 18.8 µM | [15] 13.7 µM | [3] 19.2 µM | [4] 11.6 µM | [5] 12 µM | [6] > 10 µM | [7] 20 µM | [8] 12.3 µM | [9] 11.6 µM | [10] 17.7 µM | [11] 18.8 µM | [13] 14.4 µM | [14] 17.9 µM

OCc1c2c(cc3c1CC1(C3)Cc3cc4c(c(CO)c3C1)CCC4)CCC2
inactive: [1] 1.67 µM | [15] 15.2 µM | [3] 19.6 µM | [4] 15.3 µM | [5] 20.6 µM | [8] 14.4 µM | [9] 17.5 µM | [11] 13.1 µM | [12] 5.73 µM | [13] 14.6 µM | [14] 10.3 µM

CN1C(=O)C(CC=O)(C(C)(C)C)c2ccccc21 (configuration not stated)
inactive: [1] 64 µM | [2] > 100 µM | [15] > 100 µM | [4] > 100 µM | [5] 30.8 µM | [6] 79.6 µM | [8] > 100 µM | [16] > 100 µM | [9] > 100 µM | [10] 56.4 µM | [11] > 100 µM | [12] > 100 µM | [14] 47.2 µM

CC(C)(C)c1cc2c(c(C(C)(C)C)c1O)CC(=O)O2
inactive: [1] 26.3 µM | [2] 34.7 µM | [15] 24.5 µM | [3] 30.4 µM | [4] 27.2 µM | [5] 27 µM | [6] 42.4 µM | [8] 31.2 µM | [9] 35 µM | [10] 47.5 µM | [11] 19.8 µM | [12] 34.6 µM | [13] 30.8 µM | [14] 22.8 µM

Cc1c2c(c(C)n1-c1ccccc1)C(=O)N(CCN1CCN(c3cccc(C(F)(F)F)c3)CC1)C2=O
inactive: [1] 48.6 µM | [2] > 100 µM | [15] > 100 µM | [3] > 100 µM | [4] 18.8 µM | [5] > 100 µM | [7] > 100 µM | [8] 46.6 µM | [9] 97.5 µM | [10] > 100 µM | [11] 7.94 µM | [13] 8.02 µM | [14] > 100 µM

COC(=O)c1cc(=O)nc2sc3cccc(C)c3n12
inactive: [2] 46.3 µM | [15] 24.8 µM | [3] > 100 µM | [4] 21 µM | [5] 42 µM | [6] 30.3 µM | [7] 55.6 µM | [8] 46.9 µM | [16] 24 µM | [10] > 100 µM | [11] 55 µM | [12] 19 µM | [13] 29.6 µM | [14] 20.9 µM

COC(=O)C1=CCC[C@H]2[C@@]1(COC(C)=O)CC[C@@H](C)[C@]2(C)CC(=O)c1ccoc1
inactive: [1] 13.4 µM | [2] 27.9 µM | [15] 17.2 µM | [3] 18.2 µM | [4] 14.7 µM | [5] 16.7 µM | [6] 21.1 µM | [7] 10.9 µM | [8] 19 µM | [9] 12.9 µM | [10] 21.5 µM | [11] 13.8 µM | [12] 10.8 µM | [13] 24.3 µM | [14] 16.9 µM

CCOC(=O)C1CCC(=O)N1C(=O)c1ccc(Cl)cc1 (configuration not stated)
inactive: [1] > 100 µM | [2] > 100 µM | [15] > 100 µM | [5] > 100 µM | [6] > 100 µM | [7] > 100 µM | [8] > 100 µM | [16] > 100 µM | [9] > 100 µM | [10] > 100 µM | [11] > 100 µM | [12] > 100 µM | [13] > 100 µM | [14] > 100 µM

O=C(CSCC(=O)N/N=C/c1cccc(OCc2ccccc2)c1)N/N=C/c1cccc(OCc2ccccc2)c1
inactive: [1] 46.9 µM | [2] 57.5 µM | [15] > 100 µM | [3] 33.3 µM | [4] 20 µM | [5] 37.5 µM | [6] > 87.1 µM | [7] 68.1 µM | [8] 27.9 µM | [9] 30.6 µM | [10] > 100 µM | [11] 36.6 µM | [12] 21.5 µM | [13] 69.3 µM | [14] 32.9 µM

CC(=O)ON1C(=O)c2cccc3cccc(c23)C1=O
inactive: [1] 6.27 µM | [2] 36.8 µM | [15] 29 µM | [3] 31.7 µM | [4] 25.8 µM | [5] 14.7 µM | [6] 5.62 µM | [7] 20.9 µM | [8] 23.2 µM | [9] 31.6 µM | [10] 15.1 µM | [11] 10.4 µM | [12] 10.9 µM | [13] 28.1 µM | [14] 28.4 µM

CC(=O)NNC1=NN(C(C)=O)C2(S1)C(=O)Nc1ccccc12 (configuration not stated)
inactive: [1] > 100 µM | [2] > 100 µM | [15] > 100 µM | [3] > 100 µM | [4] 45 µM | [5] > 100 µM | [6] > 100 µM | [16] > 100 µM | [9] > 100 µM | [10] > 100 µM | [11] > 100 µM | [12] 97.5 µM | [13] > 100 µM | [14] > 100 µM

CC(C)=CC1C(C(=O)Oc2ccccc2C(C)C)C1(C)C (configuration not stated)
inactive: [1] 17.7 µM | [2] 34.3 µM | [15] 22.9 µM | [3] 32.8 µM | [5] 30.8 µM | [6] 24.3 µM | [7] 30 µM | [8] 31.1 µM | [16] 20.9 µM | [9] 17.8 µM | [10] 40.5 µM | [11] 23.8 µM | [12] 19.1 µM | [13] 17.3 µM | [14] 18.4 µM

COC(=O)c1c(O)ccc2c1c1c(n2Cc2ccc(OC)cc2)C(=O)c2ccccc2C1
inactive: [1] 41.6 µM | [2] 71 µM | [15] 32.4 µM | [3] 84.1 µM | [4] 18.5 µM | [5] 45.7 µM | [6] 82.8 µM | [7] > 100 µM | [8] 45.9 µM | [16] 66.2 µM | [10] > 100 µM | [11] 63.4 µM | [12] > 100 µM

NNc1nnc(CCCCCCCCc2nnc(NN)n2N)n1N
inactive: [1] > 100 µM | [2] 64.3 µM | [15] 41.5 µM | [3] > 100 µM | [4] > 100 µM | [5] > 100 µM | [6] > 100 µM | [7] 26.1 µM | [8] > 100 µM | [9] 33.3 µM | [10] > 100 µM | [11] 97.7 µM | [12] 24.4 µM | [13] > 100 µM | [14] > 100 µM

CCOC(=O)C1=C(Nc2cccc(OC)c2)OCC1=O
inactive: [1] > 100 µM | [2] > 100 µM | [15] > 100 µM | [3] > 100 µM | [4] > 100 µM | [5] > 100 µM | [6] > 100 µM | [16] > 100 µM | [9] > 100 µM | [10] 68.7 µM | [11] > 100 µM | [12] > 100 µM | [13] > 100 µM | [14] > 100 µM

CC(=O)c1ccc(N2CCN(C3=CC(=O)c4c(O)ccc(O)c4C3=O)CC2)cc1
inactive: [1] 4.42 µM | [2] 62.4 µM | [15] 13.4 µM | [3] 61 µM | [4] 66.1 µM | [6] 35.6 µM | [8] 19 µM | [16] 22.5 µM | [9] > 100 µM | [10] > 100 µM | [11] 34 µM | [12] 10.4 µM | [13] > 100 µM

CO[C@H]1O[C@@H]2OC3(C)CCC4[C@H](C)CCC([C@H]1C)[C@]42OO3 (some centres not stated)
inactive: [1] 24.8 µM | [2] > 100 µM | [15] > 100 µM | [4] 76 µM | [5] > 100 µM | [6] > 100 µM | [8] > 100 µM | [16] 56.2 µM | [9] > 100 µM | [10] > 100 µM | [11] > 100 µM | [12] 1.32 µM | [13] > 100 µM | [14] > 100 µM

CNc1ncnc2c1nc(NC1CCCC1)n2C1OC(CO)C(O)C1O (configuration not stated)
inactive: [1] > 100 µM | [2] > 100 µM | [15] > 100 µM | [3] > 100 µM | [4] > 100 µM | [5] > 100 µM | [6] > 100 µM | [8] > 100 µM | [9] > 100 µM | [10] > 100 µM | [11] > 100 µM | [14] > 100 µM

O=C(Nc1ccn(C2CCC(COC(c3ccccc3)(c3ccccc3)c3ccccc3)O2)c(=O)n1)c1ccccc1 (configuration not stated)
inactive: [1] 5.3 µM | [2] 5.66 µM | [15] 5.87 µM | [3] 5.12 µM | [4] 1.5 µM | [5] 3.42 µM | [6] 4.94 µM | [8] 4.21 µM | [16] 2.34 µM | [9] 11.5 µM | [10] 7.91 µM | [11] 2.31 µM | [12] 1.83 µM | [13] 5.11 µM | [14] 3.8 µM
